Test results taken from patent publication US10508077B2 (FORMA Therapeutics, Inc., priority 2015, dated 2019).

Target: T1, Full length human recombinant HDAC8 protein (Homo sapiens, UniProt Q9BY41)
T1 construct: Full length human recombinant HDAC8 protein was expressed in baculoviral system; made in house
T1 sequence (Q9BY41 1-377): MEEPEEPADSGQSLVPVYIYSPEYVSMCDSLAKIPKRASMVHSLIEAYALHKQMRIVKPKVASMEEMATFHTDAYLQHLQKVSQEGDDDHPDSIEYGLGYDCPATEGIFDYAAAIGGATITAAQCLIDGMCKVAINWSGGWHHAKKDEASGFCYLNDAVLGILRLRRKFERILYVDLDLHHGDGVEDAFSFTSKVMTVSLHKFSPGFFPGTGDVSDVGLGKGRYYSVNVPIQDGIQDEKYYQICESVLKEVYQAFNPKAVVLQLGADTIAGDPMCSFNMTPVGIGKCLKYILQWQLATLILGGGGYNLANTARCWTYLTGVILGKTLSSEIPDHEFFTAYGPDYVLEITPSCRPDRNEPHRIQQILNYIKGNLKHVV
Assay: In vitro histone deacetylase assay: enzymatic HDAC8 assay, electrophoretic mobility shift
Assay type: biochemical
Conditions: substrate RHKK(Ac)-NH2, 1 nM enzyme, compounds listed under IC50 range headings
Procedure, shortened: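 Readout was microfluidic mobility-shift separation of deacetylated product from fluorescent RHKK(Ac)-NH2 substrate (2 µM), after reaction with 1 nM recombinant full-length human HDAC8 at 25 °C, pH 7.5, stopped with SDS. Twelve 3-fold-spaced concentrations tested; product/sum ratios normalized to controls and fitted with a 4-parameter model for IC50.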

IC50, < 1000 nM:
COc1ccccc1S(=O)(=O)NC1CCN(c2ccccc2/C=C/C(=O)NO)CC1 [Example I-238, (E)-N-hydroxy-3-(2-(4-((2-methoxyphenyl)sulfon-amido)piperidin-1-yl)phenyl)acrylamide]
O=C(/C=C/c1ccccc1N1CCC(NS(=O)(=O)Cc2ccc(Cl)cc2F)CC1)NO [Example I-239, (E)-3-(2-(4-(((4-chloro-2-fluorophenyl)methyl)sul-fonamido)piperidin-1-yl)phenyl)-N-hydroxyacrylamide]
O=C(/C=C/c1ccccc1N1CCC(NS(=O)(=O)c2ccc(CNC(=O)c3ccccc3)s2)CC1)NO [Example I-240, (E)-N-((5-(N-(1-(2-(3-(hydroxyamino)-3-oxoprop-1-en-1-yl)phenyl)piperidin-4-yl)sulfamoyl)thiophen-2-yl)methyl)benzamide]
O=C(/C=C/c1ccccc1N1CCC(NS(=O)(=O)C2CC2)CC1)NO [Example I-241]
COc1ccc(OC)c(S(=O)(=O)NC2CCN(c3ccccc3/C=C/C(=O)NO)CC2)c1 [Example I-242, (E)-3-(2-(4-((2,5-dimethoxyphenyl)sulfon-amido)piperidin-1-yl)phenyl)-N-hydroxyacrylamide]
Cc1nn(C)c(Cl)c1S(=O)(=O)N1CCN(c2ccccc2/C=C/C(=O)NO)CC1 [Example I-243, (E)-3-(2-(4-((5-chloro-1,3-dimethyl-1H-pyrazol-4-yl)sulfonyl)piperazin-1-yl)phenyl)-N-hydroxyacrylamide]
Cn1ccc(S(=O)(=O)N2CCN(c3ccccc3/C=C/C(=O)NO)CC2)n1 [Example I-244, (E)-N-hydroxy-3-(2-(4-((1-methyl-1H-pyrazol-3-yl)sulfonyl)piperazin-1-yl)phenyl)acrylamide]
Cc1noc(C)c1S(=O)(=O)N1CCN(c2ccccc2/C=C/C(=O)NO)CC1 [Example I-245, (E)-3-(2-(4-((3,5-dimethylisoxazol-4-yl)sulfonyl)piperazin-1-yl)phenyl)-N-hydroxyacrylamide]
Cc1ccccc1S(=O)(=O)N1CCN(c2ccccc2/C=C/C(=O)NO)CC1 [Example I-247, (E)-N-hydroxy-3-(2-(4-(o-tolylsulfonyl)piperazin-1-yl)phenyl)acrylamide]
O=C(/C=C/c1ccccc1N1CCN(S(=O)(=O)c2ccc(C(F)(F)F)nc2)CC1)NO [Example I-248, (E)-N-hydroxy-3-(2-(4-((6-(trifluoromethyl)pyridin-3-yl)sulfonyl)piperazin-1-yl)phenyl)acrylamide]
CC(C)S(=O)(=O)N1CCN(c2ccccc2/C=C/C(=O)NO)CC1 [Example I-249, (E)-N-hydroxy-3-(2-(4-(isopropylsulfonyl)piper-azine-1-yl)phenyl)acrylamide]
O=C(/C=C/c1ccccc1N1CCN(S(=O)(=O)C2CCCC2)CC1)NO [Example I-250]
O=C(/C=C/c1ccccc1N1CCN(S(=O)(=O)Cc2ccc(F)cc2)CC1)NO [Example I-251, (E)-3-(2-(4-((4-fluorobenzyl)sulfonyl)pi-perazin-1-yl)phenyl)-N-hydroxyacrylamide]
O=C(/C=C/c1ccccc1N1CCN(S(=O)(=O)c2ccc(Cl)s2)CC1)NO [Example I-253, (E)-3-(2-(4-((5-chlorothiophen-2-yl)sulfonyl)piperazin-1-yl)phenyl)-N-hydroxyacrylamide]
O=C(/C=C/c1ccccc1N1CCN(S(=O)(=O)c2cccc3cnccc23)CC1)NO [Example I-254, (E)-N-hydroxy-3-(2-(4-(isoquinolin-5-ylsulfonyl)piperazin-1-yl)phenyl)acrylamide]
O=C(/C=C/c1ccccc1N1CCN(S(=O)(=O)C2CCOCC2)CC1)NO [Example I-255, (E)-N-hydroxy-3-(2-(4-((tetrahydro-2H-pyran-4-yl)sulfonyl)piperazin-1-yl)phenyl)acrylamide]
COc1ccc(S(=O)(=O)N2CCN(c3ccccc3/C=C/C(=O)NO)CC2)cc1OC [Example I-256, (E)-3-(2-(4-((3,4-dimethoxyphenyl)sulfonyl)piperazin-1-yl)phenyl)-N-hydroxyacrylamide]
O=C(/C=C/c1ccccc1N1CCN(S(=O)(=O)Cc2cccc(F)c2)CC1)NO [Example I-257, (E)-3-(2-(4-((3-fluorobenzyl)sulfonyl)piperazin-1-yl)phenyl)-N-hydroxyacrylamide]
Cn1cnc(S(=O)(=O)N2CCN(c3ccccc3/C=C/C(=O)NO)CC2)c1 [Example I-258, (E)-N-hydroxy-3-(2-(4-((1-methyl-1H-imidazol-4-yl)sulfonyl)piperazin-1-yl)phenyl)acrylamide]
O=C(/C=C/c1ccccc1N1CCN(S(=O)(=O)Cc2ccc(Cl)cc2F)CC1)NO [Example I-259, (E)-3-(2-(4-((4-chloro-2-fluorobenzyl)sulfonyl)pi-perazin-1-yl)phenyl)-N-hydroxyacrylamide]
O=C(/C=C/c1ccccc1N1CCN(S(=O)(=O)C2CC2)CC1)NO [Example I-260, (E)-3-(2-(4-(cyclopropylsulfonyl)piperazin-1-yl)phenyl)-N-hydroxyacrylamide]
CC(C)(C)OC(=O)N1CC(=O)N(c2ccccc2/C=C/C(=O)NO)C1 [Example I-261, tert-butyl (E)-3-(2-(3-(hydroxyamino)-3-oxoprop-1-en-1-yl)phenyl)-4-oxoimidazolidine-1-carboxylate]
O=C(/C=C/c1ccccc1NC(=O)c1ccccc1CCc1ccccc1)NO [Example I-267, (E)-N-(2-(3-(hydroxyamino)-3-oxoprop-1-en-1-yl)phenyl)-2-phenethylbenzamide]
O=C(/C=C/c1ccccc1NC(=O)c1sc2ccccc2c1Cl)NO [Example I-269, (E)-3-chloro-N-(2-(3-(hydroxyamino)-3-oxoprop-1-en-1-yl)phenyl)benzo[b]thiophene-2-carboxamide]
Cc1oc(-c2ccccc2)cc1C(=O)Nc1ccccc1/C=C/C(=O)NO [Example I-271, (E)-N-(2-(3-(hydroxyamino)-3-oxoprop-1-en-1-yl)phenyl)-2-methyl-5-phenylfuran-3-carboxamide]
Cc1oc(-c2ccc(Cl)cc2)cc1C(=O)Nc1ccccc1/C=C/C(=O)NO [Example I-272, (E)-5-(4-chlorophenyl)-N-(2-(3-(hydroxyamino)-3-oxoprop-1-en-1-yl)phenyl)-2-methylfuran-3-carboxamide]
O=C(/C=C/c1ccccc1NC(=O)c1ccc(-n2cccc2)nc1)NO [Example I-273, (E)-N-(2-(3-(hydroxyamino)-3-oxoprop-1-en-1-yl)phenyl)-6-(1H-pyrrol-1-yl)nicotinamide]
CCCc1nc(-c2ccccc2)sc1C(=O)Nc1ccccc1/C=C/C(=O)NO [Example I-276, (E)-N-(2-(3-(hydroxyamino)-3-oxoprop-1-en-1-yl)phenyl)-2-phenyl-4-propylthiazole-5-carboxamide]
Cc1nc(-c2ccccc2)sc1C(=O)Nc1ccccc1/C=C/C(=O)NO [Example I-277, (E)-N-(2-(3-(hydroxyamino)-3-oxoprop-1-en-1-yl)phenyl)-4-methyl-2-phenylthiazole-5-carboxamide]
